Laboratory results: PMC8550792, “Evolution of kinase polypharmacology across HSP90 drug discovery” (Cell Chemical Biology, 2021)

Columns and labels:
Experiment in all cases: biochemical
Type in all cases: biochemical
382 unique human kinases [1] = target: T1, 382 unique human kinases (Homo sapiens, UniProt P53667); conditions: LIMK1, 10 uM; for remaining activity at 10 µM: read-out: % Enzyme Activity (relative to DMSO controls)
T1 construct: purchased Reaction Biology (HotSpot contract assay)

382 unique human kinases [2] = target: T2, 382 unique human kinases (Homo sapiens, UniProt P43403, Y319F); conditions: ZAP70 (Y319F), 10 uM; for remaining activity at 10 µM: read-out: % Enzyme Activity (relative to DMSO controls)
T2 construct: purchased Reaction Biology (HotSpot contract assay)
T2 sequence (P43403 1-619 Y319F): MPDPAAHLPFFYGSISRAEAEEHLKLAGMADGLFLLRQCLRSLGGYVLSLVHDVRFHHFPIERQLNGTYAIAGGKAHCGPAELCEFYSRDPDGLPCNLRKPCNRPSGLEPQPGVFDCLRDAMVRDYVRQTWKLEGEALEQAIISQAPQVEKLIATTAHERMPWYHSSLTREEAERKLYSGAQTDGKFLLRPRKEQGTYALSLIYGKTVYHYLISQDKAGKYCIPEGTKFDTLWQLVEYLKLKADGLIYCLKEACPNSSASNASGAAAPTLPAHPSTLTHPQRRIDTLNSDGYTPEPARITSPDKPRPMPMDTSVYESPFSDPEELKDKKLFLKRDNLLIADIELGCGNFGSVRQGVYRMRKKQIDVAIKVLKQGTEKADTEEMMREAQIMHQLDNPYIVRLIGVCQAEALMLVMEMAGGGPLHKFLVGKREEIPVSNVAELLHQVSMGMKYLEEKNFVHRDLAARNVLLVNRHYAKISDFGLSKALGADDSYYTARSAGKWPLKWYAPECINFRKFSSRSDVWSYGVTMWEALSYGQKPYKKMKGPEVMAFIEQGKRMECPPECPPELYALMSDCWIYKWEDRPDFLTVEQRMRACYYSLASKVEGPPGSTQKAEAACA

382 unique human kinases [3] = target: T3, 382 unique human kinases (Homo sapiens, UniProt P49759); conditions: CLK1, 10 uM; for remaining activity at 10 µM: read-out: % Enzyme Activity (relative to DMSO controls)
T3 construct: purchased Reaction Biology (HotSpot contract assay)
T3 sequence (P49759 whole entry): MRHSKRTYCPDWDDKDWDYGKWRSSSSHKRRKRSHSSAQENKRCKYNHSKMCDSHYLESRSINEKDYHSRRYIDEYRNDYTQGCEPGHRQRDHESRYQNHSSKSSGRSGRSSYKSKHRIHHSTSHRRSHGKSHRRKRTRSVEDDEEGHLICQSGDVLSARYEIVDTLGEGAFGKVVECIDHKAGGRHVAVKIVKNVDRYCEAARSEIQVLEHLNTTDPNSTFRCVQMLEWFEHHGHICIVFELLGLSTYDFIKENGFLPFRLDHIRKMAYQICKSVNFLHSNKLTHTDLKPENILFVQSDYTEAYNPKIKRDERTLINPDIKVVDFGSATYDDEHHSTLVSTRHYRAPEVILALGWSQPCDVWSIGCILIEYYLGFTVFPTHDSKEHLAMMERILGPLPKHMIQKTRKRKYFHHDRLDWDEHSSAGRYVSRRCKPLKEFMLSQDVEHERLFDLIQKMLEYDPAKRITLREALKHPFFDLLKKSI

382 unique human kinases [4] = target: T4, 382 unique human kinases (Homo sapiens, UniProt O43318); conditions: kinase TAK1, compound 10 uM; for remaining activity at 10 µM: read-out: % Enzyme Activity (relative to DMSO controls)
T4 construct: purchased Reaction Biology (HotSpot contract assay)
T4 sequence (O43318 1-606): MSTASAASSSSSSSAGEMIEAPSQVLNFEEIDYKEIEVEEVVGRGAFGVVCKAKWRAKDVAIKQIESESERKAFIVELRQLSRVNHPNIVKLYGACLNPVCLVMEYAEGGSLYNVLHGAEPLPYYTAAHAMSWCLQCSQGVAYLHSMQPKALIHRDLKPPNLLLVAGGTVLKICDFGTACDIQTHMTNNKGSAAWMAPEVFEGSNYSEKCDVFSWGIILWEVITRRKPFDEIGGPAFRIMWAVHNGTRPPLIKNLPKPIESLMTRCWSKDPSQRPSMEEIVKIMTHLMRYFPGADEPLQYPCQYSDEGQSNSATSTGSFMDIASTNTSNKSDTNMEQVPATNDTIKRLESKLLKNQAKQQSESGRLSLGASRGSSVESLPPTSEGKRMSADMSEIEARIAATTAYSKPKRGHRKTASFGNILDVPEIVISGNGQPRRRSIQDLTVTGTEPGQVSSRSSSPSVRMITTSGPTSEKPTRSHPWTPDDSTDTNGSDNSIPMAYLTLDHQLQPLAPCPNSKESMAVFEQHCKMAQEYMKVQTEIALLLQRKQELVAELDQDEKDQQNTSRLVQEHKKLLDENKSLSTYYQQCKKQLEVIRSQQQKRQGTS

382 unique human kinases [5] = target: T5, 382 unique human kinases (Homo sapiens, UniProt Q8N752); conditions: CK1a1L, 10 uM; for remaining activity at 10 µM: read-out: % Enzyme Activity (relative to DMSO controls)
T5 construct: purchased Reaction Biology (HotSpot contract assay)
T5 sequence (Q8N752 1-337): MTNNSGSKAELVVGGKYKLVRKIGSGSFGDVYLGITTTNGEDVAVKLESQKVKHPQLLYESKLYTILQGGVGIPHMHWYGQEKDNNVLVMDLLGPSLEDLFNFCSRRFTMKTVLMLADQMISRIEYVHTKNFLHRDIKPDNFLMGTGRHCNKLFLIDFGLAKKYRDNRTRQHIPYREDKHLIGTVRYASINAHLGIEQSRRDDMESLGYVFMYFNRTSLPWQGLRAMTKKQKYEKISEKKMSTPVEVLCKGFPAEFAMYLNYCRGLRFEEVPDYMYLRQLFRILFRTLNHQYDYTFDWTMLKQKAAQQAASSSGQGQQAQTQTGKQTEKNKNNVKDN

382 unique human kinases [6] = target: T6, 382 unique human kinases (Homo sapiens, UniProt P51955); conditions: NEK2, [ATP] 10 µM, compound 10 uM; for remaining activity at 10 µM: read-out: % Enzyme Activity (relative to DMSO controls)
T6 construct: purchased Reaction Biology (HotSpot contract assay)
T6 sequence (P51955 1-445): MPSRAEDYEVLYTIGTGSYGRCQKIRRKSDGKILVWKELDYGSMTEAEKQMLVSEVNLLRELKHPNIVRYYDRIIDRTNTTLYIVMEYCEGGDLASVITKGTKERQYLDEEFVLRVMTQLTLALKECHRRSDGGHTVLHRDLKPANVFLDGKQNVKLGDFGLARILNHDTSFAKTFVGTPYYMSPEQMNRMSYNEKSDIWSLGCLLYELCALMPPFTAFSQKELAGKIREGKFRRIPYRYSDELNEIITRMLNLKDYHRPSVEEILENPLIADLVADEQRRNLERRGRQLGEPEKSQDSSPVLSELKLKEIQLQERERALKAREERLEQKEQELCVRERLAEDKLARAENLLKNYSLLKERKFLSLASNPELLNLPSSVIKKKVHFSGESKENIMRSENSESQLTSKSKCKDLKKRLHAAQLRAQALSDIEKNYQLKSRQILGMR

382 unique human kinases [7] = target: T7, 382 unique human kinases (Homo sapiens, UniProt P10721, Y823D); conditions: c-Kit (Y823D), [ATP] 100 µM, compound 10 uM; for remaining activity at 10 µM: read-out: % Enzyme Activity (relative to DMSO controls)
T7 construct: purchased Reaction Biology (HotSpot contract assay)
T7 sequence (P10721 26-976 Y823D): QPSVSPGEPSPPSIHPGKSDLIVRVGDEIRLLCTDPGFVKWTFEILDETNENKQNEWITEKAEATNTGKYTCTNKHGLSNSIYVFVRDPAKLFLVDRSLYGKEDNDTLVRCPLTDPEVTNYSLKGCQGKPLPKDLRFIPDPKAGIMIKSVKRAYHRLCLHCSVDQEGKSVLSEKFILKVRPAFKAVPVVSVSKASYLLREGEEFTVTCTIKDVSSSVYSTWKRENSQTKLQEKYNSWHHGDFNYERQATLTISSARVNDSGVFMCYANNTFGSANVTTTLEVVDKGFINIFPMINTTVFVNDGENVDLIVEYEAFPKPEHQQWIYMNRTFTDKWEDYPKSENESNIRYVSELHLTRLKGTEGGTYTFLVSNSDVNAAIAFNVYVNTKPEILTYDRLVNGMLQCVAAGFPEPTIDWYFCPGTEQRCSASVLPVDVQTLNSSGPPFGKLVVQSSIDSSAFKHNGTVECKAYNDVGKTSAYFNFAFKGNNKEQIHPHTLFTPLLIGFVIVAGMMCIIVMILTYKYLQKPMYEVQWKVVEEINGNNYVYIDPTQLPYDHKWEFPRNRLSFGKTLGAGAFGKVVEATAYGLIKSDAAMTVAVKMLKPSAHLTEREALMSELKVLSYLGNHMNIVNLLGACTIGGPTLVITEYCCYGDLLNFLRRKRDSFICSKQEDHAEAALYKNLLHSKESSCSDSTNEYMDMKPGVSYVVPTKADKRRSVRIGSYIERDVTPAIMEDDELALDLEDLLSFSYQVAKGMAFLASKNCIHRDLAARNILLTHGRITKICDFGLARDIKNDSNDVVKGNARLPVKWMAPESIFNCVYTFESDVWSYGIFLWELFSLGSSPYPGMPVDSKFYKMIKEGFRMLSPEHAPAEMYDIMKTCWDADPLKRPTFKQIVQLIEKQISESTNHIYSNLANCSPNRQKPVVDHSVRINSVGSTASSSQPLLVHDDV

T1 sequence (P53667 whole entry): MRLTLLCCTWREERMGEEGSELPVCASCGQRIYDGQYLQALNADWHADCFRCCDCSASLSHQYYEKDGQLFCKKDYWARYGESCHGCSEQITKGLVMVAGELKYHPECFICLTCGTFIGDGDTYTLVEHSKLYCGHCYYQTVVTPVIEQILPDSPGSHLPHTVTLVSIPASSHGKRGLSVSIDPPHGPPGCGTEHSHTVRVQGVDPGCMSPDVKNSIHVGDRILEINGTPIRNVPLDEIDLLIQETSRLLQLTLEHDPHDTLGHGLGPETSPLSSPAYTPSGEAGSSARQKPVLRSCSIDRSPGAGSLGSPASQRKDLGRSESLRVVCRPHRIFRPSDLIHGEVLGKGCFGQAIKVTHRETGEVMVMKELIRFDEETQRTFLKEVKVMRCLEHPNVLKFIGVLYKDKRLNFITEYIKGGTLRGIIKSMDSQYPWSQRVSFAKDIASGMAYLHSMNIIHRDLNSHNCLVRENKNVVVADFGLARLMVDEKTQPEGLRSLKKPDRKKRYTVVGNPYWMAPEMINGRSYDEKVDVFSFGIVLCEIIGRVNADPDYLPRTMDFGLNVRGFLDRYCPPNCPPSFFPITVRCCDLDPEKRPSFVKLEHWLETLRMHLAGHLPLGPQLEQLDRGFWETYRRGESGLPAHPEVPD

| SMILES | remaining activity at 10 µM (382 unique human kinases [1]) [%] | remaining activity at 10 µM (382 unique human kinases [2]) [%] | remaining activity at 10 µM (382 unique human kinases [3]) [%] | remaining activity at 10 µM (382 unique human kinases [4]) [%] | remaining activity at 10 µM (382 unique human kinases [5]) [%] | remaining activity at 10 µM (382 unique human kinases [6]) [%] | remaining activity at 10 µM (382 unique human kinases [7]) [%] | % Enzyme Activity (relative to DMSO controls) (382 unique human kinases [5]) [%] | % Enzyme Activity (relative to DMSO controls) (382 unique human kinases [6]) [%] | % Enzyme Activity (relative to DMSO controls) (382 unique human kinases [7]) [%] | % Enzyme Activity (relative to DMSO controls) (382 unique human kinases [1]) [%] | % Enzyme Activity (relative to DMSO controls) (382 unique human kinases [2]) [%] | % Enzyme Activity (relative to DMSO controls) (382 unique human kinases [3]) [%] | % Enzyme Activity (relative to DMSO controls) (382 unique human kinases [4]) [%] |
| --- | --- | --- | --- | --- | --- | --- | --- | --- | --- | --- | --- | --- | --- | --- |
| CC(C)c1cc(-c2n[nH]c(=O)n2-c2ccc3c(ccn3C)c2)c(O)cc1O [Ganetespib (STA9090)] | 67.6 | 88.4 | 69.1 | 85.8 | – | – | – | – | – | – | – | – | – | – |
| CC(C)c1cc(-c2n[nH]c(=O)n2-c2ccc3c(ccn3C)c2)c(O)cc1O [Ganetespib] | – | – | – | – | 98.3 | 51.6 | 49.7 | – | – | – | – | – | – | – |
| CCNC(=O)c1noc(-c2cc(C(C)C)c(O)cc2O)c1-c1ccc(CN2CCOCC2)cc1 [Luminespib] | – | – | – | – | 100 | 103 | 60.2 | 99.86 | 101.57 | 59.05 | – | – | – | – |
| CCNC(=O)c1noc(-c2cc(C(C)C)c(O)cc2O)c1-c1ccc(CN2CCOCC2)cc1 [Luminespib (AUY-922)] | 102 | 68.9 | 95.8 | 96.7 | – | – | – | – | – | – | 101.40 | 63.89 | 95.73 | 96.28 |
